Assay [1] addresses T1, butyrylcholinesterase (BChE) (Homo sapiens, UniProt P06276). Put plainly: In vitro BChE inhibition (Ellman's technique). In kind it is biochemical. Particulars: Ellman assay, five concentrations, triplicate. How it is done:
The semicarbazone derivatives were evaluated for their inhibitory activities against human acetylcholinesterase (AChE) and butyrylcholinesterase (BChE) enzymes using standard in vitro assays. The Ellman’s technique that was tailored to our lab’s needs was used to measure the activity of the cholinesterase enzyme. The test chemicals were first dissolved in DMSO at a concentration of 1 mg/mL to create stock solutions, which were then diluted 10 times with distilled water for use in the inhibition tests. Each compound’s inhibitory effects on the enzymes were evaluated at five different concentrations. Fifty microliters of distilled water, 50 μL of 0.1 M Tris–HCl buffer (pH 8.0), 15 μL of 0.015 M […] (as substrates), 30 μL of 0.06 M DTNB (5,5′-dithiobis(2-nitrobenzoic acid)), and 10 μL of enzyme solution made up the reaction mixture for the AChE and BChE tests. The absorbance of the blank solutions was measured before the substrate was added. The substrate was then added to each well to start the enzymatic reaction. Enzyme activity was kinetically assessed at 408 nm by using a microplate reader. Each inhibition measurement was repeated three times, and average values were taken when measuring the inhibitory potentials of the molecules. The IC50 values, indicating each compound’s inhibitory strength against cholinesterase, were determined by plotting percent activity versus inhibitor concentration.

Assay [2] deals with T1, butyrylcholinesterase (BChE). Kind of assay: BChE enzyme kinetics (Lineweaver–Burk plots). Particulars: for inhibition type: Lineweaver–Burk plots; for Ki: substrate butyrylthiocholine iodide, Lineweaver–Burk, read-out: inhibition constant (K i). Type of assay: biochemical. The protocol:
The enzymatic activity of BChE was evaluated at various concentrations of the substrate butyrylthiocholine iodide (BTChI) in the presence of fixed concentrations of each inhibitor. The resulting data were analyzed by Lineweaver–Burk double reciprocal plots to determine kinetic parameters such as K m, V max, and the inhibition type (Figure ).
Different concentrations of butyrylthiocholine iodide were used in the presence of three concentrations of each compound. Lineweaver–Burk plots were constructed by plotting the reciprocal of reaction velocity (1/V) against the reciprocal of substrate concentration (1/[S]). Based on these plots, the inhibition types were determined. The inhibition constant (K i) was calculated using the following equation (eq ). 2 slope=Km/Vmax×(1+[I]/Ki)

Values joined by “and” are separate entries in the source; they are usually repeats but may differ in a detail not shown here. Equal entries are not always repeated.

T1 sequence (P06276 29-602): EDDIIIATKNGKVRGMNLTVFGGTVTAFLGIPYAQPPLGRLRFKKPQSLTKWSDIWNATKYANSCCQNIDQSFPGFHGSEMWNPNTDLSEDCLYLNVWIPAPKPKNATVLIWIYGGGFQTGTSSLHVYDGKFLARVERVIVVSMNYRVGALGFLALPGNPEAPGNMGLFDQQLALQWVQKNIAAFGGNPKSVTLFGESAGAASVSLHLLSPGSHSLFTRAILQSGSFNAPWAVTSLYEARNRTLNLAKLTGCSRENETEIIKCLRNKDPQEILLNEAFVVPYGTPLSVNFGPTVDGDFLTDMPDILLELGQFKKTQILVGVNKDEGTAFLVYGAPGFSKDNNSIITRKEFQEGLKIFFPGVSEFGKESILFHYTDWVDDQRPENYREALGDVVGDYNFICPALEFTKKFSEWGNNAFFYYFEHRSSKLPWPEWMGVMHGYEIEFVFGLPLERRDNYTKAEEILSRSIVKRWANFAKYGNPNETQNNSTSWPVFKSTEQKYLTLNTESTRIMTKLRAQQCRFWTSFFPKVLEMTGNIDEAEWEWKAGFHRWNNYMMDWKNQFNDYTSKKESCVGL

`NC(=O)N/N=C/c1ccc(OS(=O)(=O)c2ccccc2)cc1` [Compound 1, 4-[(E)-(2-Carbamoylhydrazinylidene)methyl]phenyl Benzenesulfonate] gave an IC50 in assay [1] of 139 µM.

As for `NC(=O)N/N=C/c1ccc(OS(=O)(=O)c2ccc(F)cc2)cc1` [Compound 2, 4-[(E)-(2-Carbamoylhydrazinylidene)methyl]phenyl 4-Fluorobenzene-1-sulfonate], in assay [1], the IC50 turned out to be 161 µM. The IC50 values of the last two molecules are within 1.5-fold of each other.

In turn, `NC(=O)N/N=C/c1ccc(OS(=O)(=O)c2ccc(Cl)cc2)cc1` [Compound 3, 4-[(E)-(2-carbamoylhydrazinylidene)methyl]phenyl 4-Chlorobenzene-1-sulfonate] registered an IC50 in assay [1] of 141 µM.

For `NC(=O)N/N=C/c1ccc(OS(=O)(=O)c2ccc(Br)cc2)cc1` [Compound 4, 4-[(E)-(2-Carbamoylhydrazinylidene)methyl]phenyl 4-Bromobenzene-1-sulfonate], the IC50 in assay [1] worked out at 177 µM.

`NC(=O)N/N=C/c1ccc(OS(=O)(=O)c2ccc(I)cc2)cc1` [Compound 5, 4-[(E)-(2-Carbamoylhydrazinylidene)methyl]phenyl 4-Iodobenzene-1-sulfonate] came in with an IC50 in assay [1] of 173 µM.

In assay [1], `Cc1ccc(S(=O)(=O)Oc2ccc(/C=N/NC(N)=O)cc2)cc1` [Compound 6, 4-[(E)-(2-Carbamoylhydrazinylidene)methyl]phenyl 4-Methylbenzene-1-sulfonate] registered an IC50 of 178 µM. This IC50 and that of the molecule before are within 1.5-fold of each other.

For the molecule `COc1ccc(S(=O)(=O)Oc2ccc(/C=N/NC(N)=O)cc2)cc1` [Compound 7, 4-[(E)-(2-Carbamoylhydrazinylidene)methyl]phenyl 4-Methoxybenzene-1-sulfonate], the midpoint of inhibition in assay [1], the IC50, lay at 136 µM. The IC50 values of the last two molecules are within 1.5-fold of each other.

Regarding `NC(=O)N/N=C/c1ccc(OS(=O)(=O)c2ccccc2C(F)(F)F)cc1` [Compound 8, 4-[(E)-(2-Carbamoylhydrazinylidene)methyl]phenyl 2-(Trifluoromethyl)benzene-1-sulfonate], the IC50 in assay [1] came out at 172 µM. The IC50 values of the last two molecules are within 1.5-fold of each other.

Take `NC(=O)N/N=C/c1ccc(OS(=O)(=O)c2cccc(C(F)(F)F)c2)cc1` [Compound 9, 4-[(E)-(2-Carbamoylhydrazinylidene)methyl]phenyl-3-(trifluoromethyl)benzene-1-sulfonate]: the IC50 in assay [1] came out at 147 µM. The IC50 values of the last two molecules are within 1.5-fold of each other.

Regarding `NC(=O)N/N=C/c1ccc(OS(=O)(=O)c2ccc(C(F)(F)F)cc2)cc1` [Compound 10, 4-[(E)-(2-Carbamoylhydrazinylidene)methyl]phenyl-4-(trifluoromethyl)benzene-1-sulfonate], in assay [1], the IC50 is 139 µM.

For the molecule `NC(=O)N/N=C/c1ccc(OS(=O)(=O)c2cc(C(F)(F)F)cc(C(F)(F)F)c2)cc1` [Compound 11, 4-[(E)-(2-Carbamoylhydrazinylidene)methyl]phenyl 3,5-Bis(trifluoromethyl)benzene-1-sulfonate], in assay [1], the “BChE IC50” value is “stronger inhibition than the reference drug pyridostigmine bromide”; the IC50 is < 130 µM and 114 µM.

`NC(=O)N/N=C/c1ccc(OS(=O)(=O)c2ccccc2OC(F)(F)F)cc1` [Compound 12, 4-[(E)-(2-Carbamoylhydrazinylidene)methyl]phenyl 2-(Trifluoromethoxy)benzene-1-sulfonate]: in assay [2], the inhibition type entry is “reversible competitive inhibitors” and the Ki is 11.9 ± 3.31 µM. In assay [1], the “BChE IC50” value is “stronger inhibition than the reference drug pyridostigmine bromide”; the IC50 was 61.9 µM and < 130 µM.

Consider `NC(=O)N/N=C/c1ccc(OS(=O)(=O)c2cccc(OC(F)(F)F)c2)cc1` [Compound 13, 4-[(E)-(2-Carbamoylhydrazinylidene)methyl]phenyl 3-(Trifluoromethoxy)benzene-1-sulfonate], for which, in assay [1], the “BChE IC50” value is reported as “stronger inhibition than the reference drug pyridostigmine bromide”; the half-inhibitory concentration (IC50) is < 130 µM and 116 µM.

As to `NC(=O)N/N=C/c1ccc(OS(=O)(=O)c2ccc(OC(F)(F)F)cc2)cc1` [Compound 14, 4-[(E)-(2-Carbamoylhydrazinylidene)methyl]phenyl 4-(Trifluoromethoxy)benzene-1-sulfonate], in assay [1], the “BChE IC50” value is “stronger inhibition than the reference drug pyridostigmine bromide”; the IC50 was < 130 µM and 130 µM.

`NC(=O)N/N=C/c1ccc(OS(=O)(=O)c2ccc([N+](=O)[O-])cc2)cc1` [Compound 15, 4-[(E)-(2-Carbamoylhydrazinylidene)methyl]phenyl 4-Nitrobenzene-1-sulfonate]: the IC50 in assay [1] was determined as 347 µM.

As for `NC(=O)N/N=C/c1ccc(OS(=O)(=O)c2ccc(-c3ccccc3)cc2)cc1` [Compound 16, 4-[(E)-(2-Carbamoylhydrazinylidene)methyl]phenyl [1,1′-Biphenyl]-4-sulfonate], in assay [1], the “BChE IC50” value was “stronger inhibition than the reference drug pyridostigmine bromide”; the IC50 was < 130 µM and 112 µM.

As for `NC(=O)N/N=C/c1ccc(OS(=O)(=O)c2cccc3ccccc23)cc1` [Compound 17, 4-[(E)-(2-Carbamoylhydrazinylidene)methyl]phenyl Naphthalene-1-sulfonate], in assay [2], the inhibition type result is given as “reversible competitive inhibitors” and the Ki stood at 9.08 ± 3.51 µM. Also, in assay [1], the “BChE IC50” value is listed as “stronger inhibition than the reference drug pyridostigmine bromide”; the IC50 was 77 µM and < 130 µM.

For the molecule `NC(=O)N/N=C/c1ccc(OS(=O)(=O)c2ccc3ccccc3c2)cc1` [Compound 18, 4-[(E)-(2-Carbamoylhydrazinylidene)methyl]phenyl Naphthalene-2-sulfonate], in assay [2], the inhibition type entry is “reversible competitive inhibitors” and the Ki came out at 5.49 ± 0.33 µM. For the same molecule, in assay [1], the “BChE IC50” value was “stronger inhibition than the reference drug pyridostigmine bromide”; the concentration for half-maximal inhibition (IC50) is 93.7 µM and < 130 µM.

Broadly, the IC50 is the point on the concentration scale where inhibition reaches its midpoint.

The values above are taken from article PMC12809313, “New Sulfonate-Semicarbazone Hybrid Molecules: Synthesis, Theoretical Evaluations, Molecular Simulations, and Butyrylcholinesterase Inhibition Activity” (ACS Omega, 2025).
